How the values were obtained:
Assay type in all cases: cell-based, human
GTL-16 cells [1] = test: Multiplexed bead-based 27-plex cytokine panel, GTL-16 culture supernatants; conditions: 48 hr
Experimental: (§1) A malignant melanoma cell line A375 (American Type Culture Collection, Manassas, Va., USA) and gastric cancer cell line, GTL-16 (Prof Silvia Giordano, Institute for Cancer Research and Treatment, Turin, Italy) were cultured in RPMI 1640 supplemented with 10% FBS and 1% penicillin-streptomycin at 37° C. in 5% CO2 (GIBCO reagents, Invitrogen Corporation, Carlsbad, Calif., USA). Cell numbers were determined by ViCell™ XR Cell Viability Analyzer 2.03 (Beckman Coulter, Inc., Fullerton, Calif., USA). Cells were seeded in poly-D-lysine coated plates (BIOCOAT Cell Environments, Becton Dickinson Biosciences, San Jose, Calif., USA).
(§2) Human IL-8 levels in cell culture supernatants treated with NVP-AUY922 were initially assessed as part of a multiplexed bead-based cytokine panel (hu 27-plex panel I, Bio-rad Laboratories, Hercules, Calif., USA) with a BioPlex Suspension Array System (Bio-rad). Human IL-8 and mouse KC levels in serum derived from GTL-16 and A375 tumor-bearing mice treated with NVP-AUY922 were measured by single-plex cytokine bead-based assay (Milliplex, Millipore, Billerica, Mass., USA). The BioPlex system uses a liquid suspension array of beads. The beads align in a single file through a flow cell to the detector, where a red classification laser at a wavelength of 635 nm and a green reporter laser at a wavelength of 532 nm are used to identify each bead's spectral address and associated reporter signal, respectively.
(§3) In a screen for candidate secreted markers of Hsp90 inhibition, cell culture supernatants were collected from GTL-16 gastric carcinoma and A375 melanoma cells that were washed and treated for 48 hr with 1 μM NVP-AUY922 in fresh culture medium. These samples were analyzed by a multiplexed cytokine bead-based assay that included a panel of 27 human cytokines, the results of which are shown in FIG. 1. […] In addition to this empirical investigation using the bead-based immunoassay panel, in silica data mining was undertaken to identify secreted proteins that were regulated by previously reported Hsp90 client proteins; this investigation pointed to a number of candidates, including IL-8, consistent with the empirical results.

GTL-16 cells [2] = test: Cell viability by CellTiter-Glo, GTL-16; conditions: GTL-16, 0.3 μM, 72 hr treatment time
Experimental: Cell Viability was measured by CellTiter-Glo assay (Promega U.S., Madison, Wis., USA). GTL-16 and A375 cells were grown in 6-well poly-D-lysine coated plates (BD Biosciences). Cells were treated with NVP-AUY922. Cell viability was measured 16, 24, 48 and 72 hr post-treatment with Hsp90 inhibitor. Briefly supernatants were removed and cells were washed with 3 ml of PBS, pH 7.4. 1 ml of a two component CellTiter-Glo reagent was added to each well and the plates were shaken vigorously for 2 min, followed by 10 min incubation at room temperature in the dark. Luminescent signal intensity was recorded with an integration time set between 0.25 and 1 s/well.

A375 cells [3] = test: Western blot of total protein lysates, A375; conditions: A375, 0.3 μM, 16 hr and 24 hr
Experimental: Total protein lysates were prepared from the GTL-16 and A375 cells with RIPA lysis buffer (Upstate, Millipore Corporation, Charlottesville, Va., USA). Cells were washed with PBS and 500 ul of ice-cold RIPA buffer, containing protease inhibitor cocktail tablet (Roche Diagnostic GmbH, Mannheim, Germany) and phosphatase inhibitors (Sigma-Aldrich, Inc., St. Louis, Mo., USA), was added to each plate on ice. After 15 min the cells were scrapped from the plate surface and spun at 16000 RPM for 10 min at 4° C. The supernatant was collected and frozen at −80° C. Nuclear protein fractions were prepared by the NE-PER nuclear and cytoplasmic extraction kit (Pierce Biotechnology, Rockford, Ill., USA). Proteins were quantified by bicinchoninic acid assay (Pierce Biotechnology, Rockford, Ill., USA) for Western blotting. Primary antibodies specific for NFκB p65, cREL, p-ERK1/2, p-c-jun, ERK1 and Jun were purchased from Santa Cruz Biotechnology (Santa Cruz Biotechnology, Inc., Santa Cruz, Calif., USA) with the exception of Hsp70 and TBP (nuclear loading control), which were obtained from StressGen (StressGen, Assay Designs, Inc., Aim Arbor, Mich., USA) and Abcam (Abcam Inc., Cambridge, Mass., USA), respectively. 4-12% Bis-Tris SDS-PAGE, denaturing, non-reducing gels were loaded with 30 μg of total protein, a SeeBlue2Plus pre-stained protein standard and MES SDS running buffer were utilized for the electrophoretic separation in a XCell SureLock™ Mini-Cell (Invitrogen Corporation, Inc., Carlsbad, Calif., USA). An iBlot™ gel transfer PVDF stack with iBlot™ gel transfer system (Invitrogen) was used. An Odyssey Infrared Imaging System was used to detect the immunocomplex (Li-COR Biotechnologies, Inc., Lincoln, Nebr., USA). Li-COR blocking buffer was used to limit cross-reactivity. Membranes were incubated at 4° C. overnight in the primary antibody diluted in blocking buffer, followed by 1 hr room temperature incubation with a secondary IgG antibody (Li-COR IR dye, Li-COR).

A375 cells [4] = test: Multiplexed bead-based 27-plex cytokine panel, A375 culture supernatants; conditions: 48 hr
Experimental: as §1, §2, §3

CCNC(=O)c1noc(-c2cc(C(C)C)c(O)cc2O)c1-c1ccc(CN2CCOCC2)cc1 [NVP-AUY922, 5-(2,4-Dihydroxy-5-isopropyl-phenyl)-4-(4-morhpolin-4-ylmethyl-phenyl)-isoxazole-3-carboxylic acid ethylamide]
accumulation of FGF basic and MIP-1b (GTL-16 cells [1]; GTL-16, 1 μM): virtually unchanged | accumulation of IL-1ra, IL-8, IL-17, Eotaxin, GM-CSF, IP-10, PDGF-bb and VEGF (GTL-16 cells [1]; GTL-16, 1 μM): decreased accumulation | accumulation of IL-15 (GTL-16 cells [1]; GTL-16, 1 μM): increased accumulation | IL-8 accumulation decreased (GTL-16 cells [1]; GTL-16 culture supernatant, 1 μM, multiplexed assay): more than 80% | cell viability over time (GTL-16 cells [2]): steadily declines | Hsp70 induction (A375 cells [3]): induction was observed | levels of phospho-ERK1/2 and phospho-c-Jun (A375 cells [3]): significantly diminished | total ERK and c-Jun levels (A375 cells [3]): unaffected | total cellular levels of NFκB p65 and c-REL (A375 cells [3]): essentially unchanged | IL-2 levels (A375 cells [4]; A375, 1 μM): increased | accumulation of IL-1ra, IL-8, MCP-1 (MCAF) and VEGF (A375 cells [4]; A375, 1 μM): decreased accumulation | accumulation of other detectable cytokines (A375 cells [4]; A375, 1 μM): remained unchanged | IL-8 accumulation decreased (A375 cells [4]; A375 culture supernatant, 1 μM, multiplexed assay): > 70%

Source: patent publication US8563254B2, “Biomarkers of tumor pharmacodynamic response” (Novartis AG, priority 2009, dated 2013)
